From ChEMBL document CHEMBL1201861, “Genomics of Drug Sensitity in Cancer screening data, Wellcome Trust Sanger Institute”
pIC50: −log10 of the molar value.

Legend:
Assay in all cases: cells
Format in all cases: functional, cell-based, Homo sapiens
Capan-2 = settings: Homo sapiens, Capan-2;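 further: Capan-2 cell growth inhibition, read out with a viability assay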
Description: SANGER: Inhibition of human Capan-2 cell growth in a cell viability assay.

GP5d = settings: Homo sapiens, GP5d;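 further: growth inhibition of human GP5d cells, read out with a cell viability assay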
Description: SANGER: Inhibition of human GP5d cell growth in a cell viability assay.

HCC1954 = settings: Homo sapiens, HCC1954;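 further: growth inhibition of human HCC1954 cells, read out with a cell viability assay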
Description: SANGER: Inhibition of human HCC1954 cell growth in a cell viability assay.

HGC-27 = settings: Homo sapiens, HGC-27;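 further: growth inhibition of human HGC-27 cells, read out in a cell viability assay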
Description: SANGER: Inhibition of human HGC-27 cell growth in a cell viability assay.

HLE = settings: Homo sapiens, HLE;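 further: growth inhibition of human HLE cells, read out by a cell viability assay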
Description: SANGER: Inhibition of human HLE cell growth in a cell viability assay.

HN = settings: Homo sapiens, HN
Description: SANGER: Inhibition of human HN cell growth in a cell viability assay.

HOS = settings: Homo sapiens, HOS;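 further: growth inhibition of human HOS cells, read out with a cell viability assay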
Description: SANGER: Inhibition of human HOS cell growth in a cell viability assay.

HPAF-II = settings: Homo sapiens, HPAF-II;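 further: growth inhibition of HPAF-II cells, read out with a cell viability assay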
Description: SANGER: Inhibition of human HPAF-II cell growth in a cell viability assay.

Hs-578T = settings: Homo sapiens, Hs-578T
Description: SANGER: Inhibition of human Hs-578-T cell growth in a cell viability assay.

KP-N-YN = settings: Homo sapiens, KP-N-YN;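 further: growth inhibition of KP-N-YN cells, read out with a cell viability assay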
Description: SANGER: Inhibition of human KP-N-YN cell growth in a cell viability assay.

KYSE-410 = settings: Homo sapiens, KYSE-410;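 further: growth inhibition of KYSE-410 cells, measured through a cell viability readout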
Description: SANGER: Inhibition of human KYSE-410 cell growth in a cell viability assay.

LN-405 = settings: Homo sapiens, LN-405
Description: SANGER: Inhibition of human LN-405 cell growth in a cell viability assay.

LU-99A = settings: Homo sapiens, LU-99A;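 further: growth inhibition of LU-99A cells, read out with a cell viability assay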
Description: SANGER: Inhibition of human LU-99A cell growth in a cell viability assay.

MHH-ES-1 = settings: Homo sapiens, MHH-ES-1;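 further: cell growth inhibition measured by a cell viability assay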
Description: SANGER: Inhibition of human MHH-ES-1 cell growth in a cell viability assay.

MKN-28 = settings: Homo sapiens, MKN-28;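 further: cell viability assay read-out, IC50 reflects suppression of growth of human MKN-28 cells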
Description: SANGER: Inhibition of human MKN28 cell growth in a cell viability assay.

MOLT-13 = settings: Homo sapiens, MOLT-13;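 further: IC50 for suppression of MOLT-13 cell growth, read out with a cell viability assay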
Description: SANGER: Inhibition of human MOLT-13 cell growth in a cell viability assay.

NB14 = settings: Homo sapiens, NB14;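 further: growth inhibition of NB14 cells measured with a cell viability assay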
Description: SANGER: Inhibition of human NB14 cell growth in a cell viability assay.

NB7 = settings: Homo sapiens, NB7;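 further: growth inhibition of NB7 cells, read out with a cell viability assay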
Description: SANGER: Inhibition of human NB7 cell growth in a cell viability assay.

NCI-H1793 = settings: Homo sapiens, NCI-H1793;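 further: cell growth inhibition, read out by a cell viability assay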
Description: SANGER: Inhibition of human NCI-H1793 cell growth in a cell viability assay.

NCI-H2087 = settings: Homo sapiens, NCI-H2087;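 further: growth inhibition determined with a cell viability readout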
Description: SANGER: Inhibition of human NCI-H2087 cell growth in a cell viability assay.

NCI-H2170 = settings: Homo sapiens, NCI-H2170;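 further: cell viability assay measuring growth inhibition of human NCI-H2170 cancer cells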
Description: SANGER: Inhibition of human NCI-H2170 cell growth in a cell viability assay.

NCI-H650 = settings: Homo sapiens, NCI-H650;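 further: growth inhibition of NCI-H650 cells, read out by a viability assay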
Description: SANGER: Inhibition of human NCI-H650 cell growth in a cell viability assay.

P12-Ichikawa = settings: Homo sapiens, P12-Ichikawa
PC-3 = settings: Homo sapiens, PC-3;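 further: cell viability assay measuring growth inhibition of PC-3 cells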
Description: SANGER: Inhibition of human PC-3 cell growth in a cell viability assay.

RO82-W-1 = settings: Homo sapiens, RO82-W-1;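 further: growth inhibition of human RO82-W-1 cells, measured with a cell viability assay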
Description: SANGER: Inhibition of human RO82-W-1 cell growth in a cell viability assay.

SAS = settings: Homo sapiens, SAS;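 further: growth inhibition of SAS cells, read out with a cell viability assay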
Description: SANGER: Inhibition of human SAS cell growth in a cell viability assay.

SJRH30 = settings: Homo sapiens, SJRH30;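 further: growth inhibition of human SJRH30 cells, read out with a cell viability assay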
Description: SANGER: Inhibition of human SJRH30 cell growth in a cell viability assay.

SK-MEL-24 = settings: Homo sapiens, SK-MEL-24;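 further: growth inhibition read out by a cell viability assay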
Description: SANGER: Inhibition of human SK-MEL-24 cell growth in a cell viability assay.

SNU-449 = settings: Homo sapiens, SNU-449
Description: SANGER: Inhibition of human SNU-449 cell growth in a cell viability assay.

SW 1116 = settings: Homo sapiens, SW 1116;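 further: growth inhibition of SW1116 cells, read out with a cell viability assay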
Description: SANGER: Inhibition of human SW1116 cell growth in a cell viability assay.

SW1710 = settings: Homo sapiens, SW1710;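 further: growth inhibition of SW1710 cells, determined with a cell viability assay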
Description: SANGER: Inhibition of human SW1710 cell growth in a cell viability assay.

SAOS-2 = settings: Homo sapiens, SAOS-2;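 further: growth inhibition of human Saos-2 cells determined by a cell viability assay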
Description: SANGER: Inhibition of human Saos-2 cell growth in a cell viability assay.

T47D = settings: Homo sapiens, T47D;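 further: growth inhibition of human T47D cells, measured with a cell viability assay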
Description: SANGER: Inhibition of human T47D cell growth in a cell viability assay.

BT-549 = settings: Homo sapiens, BT-549
Description: SANGER: Inhibition of human BT-549 cell growth in a cell viability assay.

CAL-27 = settings: Homo sapiens, CAL-27;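 further: Viability-based readout, IC50 reflecting inhibition of CAL-27 cell growth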
Description: SANGER: Inhibition of human CAL-27 cell growth in a cell viability assay.

CAMA-1 = settings: Homo sapiens, CAMA-1;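 further: growth inhibition of CAMA-1 cells, read out with a cell viability assay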
Description: SANGER: Inhibition of human CAMA-1 cell growth in a cell viability assay.

CHL-1 = settings: Homo sapiens, CHL-1;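 further: cell growth inhibition, read out with a cell viability assay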
Description: SANGER: Inhibition of human CHL-1 cell growth in a cell viability assay.

SMILES	pIC50 (Capan-2)	pIC50 (GP5d)	pIC50 (HCC1954)	pIC50 (HGC-27)	pIC50 (HLE)	pIC50 (HN)	pIC50 (HOS)	pIC50 (HPAF-II)	pIC50 (Hs-578T)	pIC50 (KP-N-YN)	pIC50 (KYSE-410)	pIC50 (LN-405)	pIC50 (LU-99A)	pIC50 (MHH-ES-1)	pIC50 (MOLT-13)	pIC50 (NB14)	pIC50 (NB7)	pIC50 (NCI-H1793)	pIC50 (NCI-H2087)	pIC50 (NCI-H2170)	also measured
CCN(CC)CCCCNc1ncc2cc(-c3cc(OC)cc(OC)c3)c(NC(=O)NC(C)(C)C)nc2n1 [PD-173074]	< 5.70	< 5.70	< 5.70	< 5.70	< 5.70	< 5.70	< 5.70	< 5.70	< 5.70	< 5.70	< 5.70	< 5.70	< 5.70	< 5.70	< 5.70	< 5.70	< 5.70	< 5.70	< 5.70	< 5.70	pIC50 (MKN-28): < 5.70; pIC50 (NCI-H650): < 5.70; pIC50 (P12-Ichikawa): < 5.70; pIC50 (PC-3): < 5.70; pIC50 (RO82-W-1): < 5.70; pIC50 (SAS): < 5.70; pIC50 (SJRH30): < 5.70; pIC50 (SK-MEL-24): < 5.70; pIC50 (SNU-449): < 5.70; pIC50 (SW 1116): < 5.70; pIC50 (SW1710): < 5.70; pIC50 (SAOS-2): < 5.70; pIC50 (T47D): < 5.70; pIC50 (BT-549): < 5.70; pIC50 (CAL-27): < 5.70; pIC50 (CAMA-1): < 5.70; pIC50 (CHL-1): < 5.70
COc1cc2c(Nc3ccc(NC(=O)c4ccccc4)cc3)ncnc2cc1OCCCN1CCOCC1	< 5.40	< 5.40	< 5.40	< 5.40	< 5.40	5.72	< 5.40	< 5.40	< 5.40	< 5.40	< 5.40	< 5.40	< 5.40	5.67	5.80	5.81	5.76	< 5.40	< 5.40	< 5.40	pIC50 (MKN-28): < 5.40; pIC50 (NCI-H650): < 5.40; pIC50 (P12-Ichikawa): 6.65; pIC50 (PC-3): < 5.40; pIC50 (RO82-W-1): < 5.40; pIC50 (SAS): < 5.40; pIC50 (SJRH30): < 5.40; pIC50 (SK-MEL-24): < 5.40; pIC50 (SNU-449): < 5.40; pIC50 (SW 1116): < 5.40; pIC50 (SW1710): < 5.40; pIC50 (SAOS-2): < 5.40; pIC50 (T47D): < 5.40; pIC50 (BT-549): < 5.40; pIC50 (CAL-27): < 5.40; pIC50 (CAMA-1): < 5.40; pIC50 (CHL-1): 5.47
Cn1cnc2c(F)c(Nc3ccc(Br)cc3Cl)c(C(=O)NOCCO)cc21 [SELUMETINIB]	< 5.40	< 5.40	< 5.40	< 5.40	< 5.40	6.00	< 5.40	5.48	< 5.40	< 5.40	< 5.40	< 5.40	< 5.40	< 5.40	< 5.40	< 5.40	< 5.40	< 5.40	5.86	< 5.40	pIC50 (NCI-H650): < 5.40; pIC50 (P12-Ichikawa): 5.94; pIC50 (PC-3): < 5.40; pIC50 (RO82-W-1): < 5.40; pIC50 (SAS): < 5.40; pIC50 (SJRH30): < 5.40; pIC50 (SNU-449): < 5.40; pIC50 (SW 1116): < 5.40; pIC50 (SW1710): < 5.40; pIC50 (SAOS-2): < 5.40; pIC50 (T47D): < 5.40; pIC50 (BT-549): < 5.40; pIC50 (CAL-27): 5.51; pIC50 (CAMA-1): < 5.40; pIC50 (CHL-1): < 5.40
CC1(C)CNc2cc(NC(=O)c3cccnc3NCc3ccncc3)ccc21 [MOTESANIB]	< 5.70	< 5.70	< 5.70	< 5.70	< 5.70	< 5.70	< 5.70	< 5.70	< 5.70	< 5.70	< 5.70	< 5.70	< 5.70	< 5.70	< 5.70	< 5.70	< 5.70	< 5.70	< 5.70	< 5.70	pIC50 (MKN-28): < 5.70; pIC50 (NCI-H650): < 5.70; pIC50 (P12-Ichikawa): < 5.70; pIC50 (PC-3): < 5.70; pIC50 (RO82-W-1): < 5.70; pIC50 (SAS): < 5.70; pIC50 (SJRH30): < 5.70; pIC50 (SK-MEL-24): < 5.70; pIC50 (SNU-449): < 5.70; pIC50 (SW 1116): < 5.70; pIC50 (SW1710): < 5.70; pIC50 (SAOS-2): < 5.70; pIC50 (T47D): < 5.70; pIC50 (BT-549): < 5.70; pIC50 (CAL-27): < 5.70; pIC50 (CAMA-1): < 5.70; pIC50 (CHL-1): < 5.70
